# Source: ChEMBL document CHEMBL3885881, “DrugMatrix”
# Species on record: Rattus norvegicus
# Test: DrugMatrix - Regimen: Daily Repeat
# Assay type: toxicity, organism-based, Sprague-Dawley
# Set-up: regimen Daily Repeat, gender Male, age 6-8 weeks
# Settings: in vivo, po, route oral GAVAGE, vehicle .5 % CMC; for ABSOLUTE BASOPHIL / ABSOLUTE EOSINOPHIL / ABSOLUTE LYMPHOCYTE / ABSOLUTE MONOCYTE / ABSOLUTE SEGMENTED NEUTROPHIL / BASOPHIL / EOSINOPHIL / ERYTHROCYTE COUNT / HEMATOCRIT / HEMOGLOBIN / LEUKOCYTE COUNT / LYMPHOCYTE / MEAN CORPUSCULAR HEMOGLOBIN / MEAN CORPUSCULAR HEMOGLOBIN CONCENTRATION / MEAN CORPUSCULAR VOLUME / MONOCYTE / NEUTROPHIL / NUCLEATED RED BLOOD CELLS / PLATELET COUNT: tissue Blood; for ALANINE AMINOTRANSFERASE / ALBUMIN / ALKALINE PHOSPHATASE / ASPARTATE AMINOTRANSFERASE / BLOOD UREA NITROGEN / CARBON DIOXIDE / CHLORIDE / CHOLESTEROL / CREATINE PHOSPHOKINASE / CREATININE / GLUCOSE / LACTATE DEHYDROGENASE / LIPASE / PHOSPHORUS / POTASSIUM / SODIUM / TOTAL BILIRUBIN / TOTAL PROTEIN / URIC ACID: tissue Plasma
# [1] = 300 mg/kg, 72 h, dose level Low, time 3 day
# [2] = 300 mg/kg, 120 h, dose level Low, time 5 day
# [3] = 2000 mg/kg, 72 h, dose level High, time 3 day
# [4] = 2000 mg/kg, 120 h, dose level High, time 5 day
structure (smiles),measurement,setting,value
CC1(C)S[C@@H]2[C@H](NC(=O)[C@H](N)c3ccccc3)C(=O)N2[C@H]1C(=O)O [AMPICILLIN],ABSOLUTE BASOPHIL,[1],0 CELLS/uL
same,ABSOLUTE EOSINOPHIL,[1],0 CELLS/uL
same,ABSOLUTE LYMPHOCYTE,[1],16747 CELLS/uL
same,ABSOLUTE MONOCYTE,[1],205.33 CELLS/uL
same,ABSOLUTE SEGMENTED NEUTROPHIL,[1],2214.33 CELLS/uL
same,BASOPHIL,[1],0%
same,EOSINOPHIL,[1],0%
same,ERYTHROCYTE COUNT,[1],5.53 x10E6/uL
same,HEMATOCRIT,[1],34.2%
same,HEMOGLOBIN,[1],13.4 G/DL
same,LEUKOCYTE COUNT,[1],19.17 x10E3/uL
same,LYMPHOCYTE,[1],87.33%
same,MEAN CORPUSCULAR HEMOGLOBIN,[1],24.23 pg
same,MEAN CORPUSCULAR HEMOGLOBIN CONCENTRATION,[1],39.17 G/DL
same,MEAN CORPUSCULAR VOLUME,[1],61.9 fL
same,MONOCYTE,[1],1%
same,NEUTROPHIL,[1],11.67%
same,NUCLEATED RED BLOOD CELLS,[1],0 /100WBC
same,PLATELET COUNT,[1],1348.33 x10E3/uL
same,ALANINE AMINOTRANSFERASE,[1],47.67 u/L
same,ALBUMIN,[1],4.03 G/DL
same,ALKALINE PHOSPHATASE,[1],258.67 u/L
same,ASPARTATE AMINOTRANSFERASE,[1],88 u/L
same,BLOOD UREA NITROGEN,[1],17.67 mg/dL
same,CARBON DIOXIDE,[1],25.67 mmol/L
same,CHLORIDE,[1],101.33 MEQ/L
same,CHOLESTEROL,[1],82.67 mg/dL
same,CREATINE PHOSPHOKINASE,[1],507.67 u/L
same,CREATININE,[1],0.28 mg/dL
same,GLUCOSE,[1],170 mg/dL
same,LACTATE DEHYDROGENASE,[1],299.67 u/L
same,LIPASE,[1],9.33 u/L
same,PHOSPHORUS,[1],11.7 mg/dL
same,POTASSIUM,[1],6.51 MEQ/L
same,SODIUM,[1],143.9 MEQ/L
same,TOTAL BILIRUBIN,[1],0.17 mg/dL
same,TOTAL PROTEIN,[1],5.87 G/DL
same,URIC ACID,[1],2.2 mg/dL
same,ABSOLUTE BASOPHIL,[2],0 CELLS/uL
same,ABSOLUTE EOSINOPHIL,[2],67.33 CELLS/uL
same,ABSOLUTE LYMPHOCYTE,[2],16228 CELLS/uL
same,ABSOLUTE MONOCYTE,[2],111.33 CELLS/uL
same,ABSOLUTE SEGMENTED NEUTROPHIL,[2],1460 CELLS/uL
same,BASOPHIL,[2],0%
same,EOSINOPHIL,[2],0.33%
same,ERYTHROCYTE COUNT,[2],5.55 x10E6/uL
same,HEMATOCRIT,[2],34.3%
same,HEMOGLOBIN,[2],13.4 G/DL
same,LEUKOCYTE COUNT,[2],17.87 x10E3/uL
same,LYMPHOCYTE,[2],91%
same,MEAN CORPUSCULAR HEMOGLOBIN,[2],24.2 pg
same,MEAN CORPUSCULAR HEMOGLOBIN CONCENTRATION,[2],39.1 G/DL
same,MEAN CORPUSCULAR VOLUME,[2],61.93 fL
same,MONOCYTE,[2],0.67%
same,NEUTROPHIL,[2],8%
same,NUCLEATED RED BLOOD CELLS,[2],0 /100WBC
same,PLATELET COUNT,[2],1271.67 x10E3/uL
same,ALANINE AMINOTRANSFERASE,[2],58.33 u/L
same,ALBUMIN,[2],4.17 G/DL
same,ALKALINE PHOSPHATASE,[2],353 u/L
same,ASPARTATE AMINOTRANSFERASE,[2],84.33 u/L
same,BLOOD UREA NITROGEN,[2],16 mg/dL
same,CARBON DIOXIDE,[2],25.67 mmol/L
same,CHLORIDE,[2],103.33 MEQ/L
same,CHOLESTEROL,[2],80.33 mg/dL
same,CREATINE PHOSPHOKINASE,[2],323.67 u/L
same,CREATININE,[2],0.22 mg/dL
same,GLUCOSE,[2],150.33 mg/dL
same,LACTATE DEHYDROGENASE,[2],269.33 u/L
same,LIPASE,[2],10 u/L
same,PHOSPHORUS,[2],13 mg/dL
same,POTASSIUM,[2],6.3 MEQ/L
same,SODIUM,[2],143.7 MEQ/L
same,TOTAL BILIRUBIN,[2],0.13 mg/dL
same,TOTAL PROTEIN,[2],5.9 G/DL
same,URIC ACID,[2],1.67 mg/dL
same,ABSOLUTE BASOPHIL,[3],0 CELLS/uL
same,ABSOLUTE EOSINOPHIL,[3],156 CELLS/uL
same,ABSOLUTE LYMPHOCYTE,[3],12938 CELLS/uL
same,ABSOLUTE MONOCYTE,[3],42 CELLS/uL
same,ABSOLUTE SEGMENTED NEUTROPHIL,[3],1064 CELLS/uL
same,BASOPHIL,[3],0%
same,EOSINOPHIL,[3],1.33%
same,ERYTHROCYTE COUNT,[3],5.68 x10E6/uL
same,HEMATOCRIT,[3],35.27%
same,HEMOGLOBIN,[3],13.93 G/DL
same,LEUKOCYTE COUNT,[3],14.2 x10E3/uL
same,LYMPHOCYTE,[3],90.33%
same,MEAN CORPUSCULAR HEMOGLOBIN,[3],24.53 pg
same,MEAN CORPUSCULAR HEMOGLOBIN CONCENTRATION,[3],39.5 G/DL
same,MEAN CORPUSCULAR VOLUME,[3],62.13 fL
same,MONOCYTE,[3],0.33%
same,NEUTROPHIL,[3],8%
same,NUCLEATED RED BLOOD CELLS,[3],0 /100WBC
same,PLATELET COUNT,[3],1229.33 x10E3/uL
same,ALANINE AMINOTRANSFERASE,[3],60 u/L
same,ALBUMIN,[3],4.2 G/DL
same,ALKALINE PHOSPHATASE,[3],309 u/L
same,ASPARTATE AMINOTRANSFERASE,[3],77.67 u/L
same,BLOOD UREA NITROGEN,[3],18 mg/dL
same,CARBON DIOXIDE,[3],32 mmol/L
same,CHLORIDE,[3],100.67 MEQ/L
same,CHOLESTEROL,[3],94.33 mg/dL
same,CREATINE PHOSPHOKINASE,[3],141 u/L
same,CREATININE,[3],0.18 mg/dL
same,GLUCOSE,[3],140 mg/dL
same,LACTATE DEHYDROGENASE,[3],104 u/L
same,LIPASE,[3],9.67 u/L
same,PHOSPHORUS,[3],11.33 mg/dL
same,POTASSIUM,[3],6.92 MEQ/L
same,SODIUM,[3],144.13 MEQ/L
same,TOTAL BILIRUBIN,[3],0.17 mg/dL
same,TOTAL PROTEIN,[3],6 G/DL
same,URIC ACID,[3],1.43 mg/dL
same,ABSOLUTE BASOPHIL,[4],0 CELLS/uL
same,ABSOLUTE EOSINOPHIL,[4],45.67 CELLS/uL
same,ABSOLUTE LYMPHOCYTE,[4],13556.33 CELLS/uL
same,ABSOLUTE MONOCYTE,[4],151.67 CELLS/uL
same,ABSOLUTE SEGMENTED NEUTROPHIL,[4],1413 CELLS/uL
same,BASOPHIL,[4],0%
same,EOSINOPHIL,[4],0.33%
same,ERYTHROCYTE COUNT,[4],5.47 x10E6/uL
same,HEMATOCRIT,[4],33.33%
same,HEMOGLOBIN,[4],13.37 G/DL
same,LEUKOCYTE COUNT,[4],15.17 x10E3/uL
same,LYMPHOCYTE,[4],88.67%
same,MEAN CORPUSCULAR HEMOGLOBIN,[4],24.47 pg
same,MEAN CORPUSCULAR HEMOGLOBIN CONCENTRATION,[4],40.1 G/DL
same,MEAN CORPUSCULAR VOLUME,[4],60.97 fL
same,MONOCYTE,[4],1%
same,NEUTROPHIL,[4],10%
same,NUCLEATED RED BLOOD CELLS,[4],0 /100WBC
same,PLATELET COUNT,[4],1262.67 x10E3/uL
same,ALANINE AMINOTRANSFERASE,[4],63.33 u/L
same,ALBUMIN,[4],4.13 G/DL
same,ALKALINE PHOSPHATASE,[4],352 u/L
same,ASPARTATE AMINOTRANSFERASE,[4],99 u/L
same,BLOOD UREA NITROGEN,[4],19.33 mg/dL
same,CARBON DIOXIDE,[4],24 mmol/L
same,CHLORIDE,[4],106.67 MEQ/L
same,CHOLESTEROL,[4],73 mg/dL
same,CREATINE PHOSPHOKINASE,[4],430.33 u/L
same,CREATININE,[4],0.2 mg/dL
same,GLUCOSE,[4],150.33 mg/dL
same,LACTATE DEHYDROGENASE,[4],413.67 u/L
same,LIPASE,[4],9.67 u/L
same,PHOSPHORUS,[4],11.63 mg/dL
same,POTASSIUM,[4],6.95 MEQ/L
same,SODIUM,[4],148.53 MEQ/L
same,TOTAL BILIRUBIN,[4],0.17 mg/dL
same,TOTAL PROTEIN,[4],6.03 G/DL
same,URIC ACID,[4],1.6 mg/dL
